The subject of data set [1] is hCMEC/D3 cells. As to the kind of experiment: MTT cell viability assay in hCMEC/D3 cells. Type of data set: cell-based, human. The settings on record: for CBD-induced proliferation level (MTT, CTL=100%): 3 μM CBD. The source says: (§1) To study the effects of TRPV2 agonists and antagonists and silencing TRPV2 on cell viability, the 3-(4,5-dimethyl-2-thiazolyl)-2,5-diphenyl-2-H-tetrazolium bromide assay (MTT, Sigma-Aldrich) evaluating cell mitochondrial activity and Trypan blue exclusion assay evaluating living cells were applied. Cells were firstly treated under three conditions mentioned above (Control, negative siRNA, and TRPV2 siRNA) in a 6-well plate. After transfection, cells were re-distributed in a new plate with the same cell number and the same medium in each well. Cell viability were analysed at 0, 24 h, 48 h, 72 h after re-distribution. For MTT assay, cells were re-distributed in 96-well plates at a density of 1×10^4 cells/well, 6 wells per group, one plate four each time. For Trypan blue exclusion assay, cells were re-distributed in 24-well plates at a density of 5×10^4 cells/well. The number of living cells (not stained by Trypan blue) in each well was counted in a TC20™ Automated Cell Counter (Bio-Rad) at each time point, with 3 wells per group.
(§2) After 24 h treatment, the wells were replaced with 100 μL/well fresh complete medium, and 20 μL MTT solution (diluted in PBS buffer, 5 mg·mL-1) was added to each well. And, the plates were kept at 37° C. for an additional 4 h. Then the medium was removed and replaced with 100 μL DMSO per well, in order to dissolve the formazan. The plates were read using a Victor™ X2 microplate reader at 490 nm (PerkinElmer).
(§3) Data are expressed as mean value±SEM. Statistical analysis was performed using ANOVA with Dunnett a posteriori test to compare different groups with the control. P value<0.05 was considered statistically significant. […] To calculate IC50 of antagonists (RR and TNL), the concentration-response data were fitted to a logistic function as follows: Y=100/(1+10(log IC50−X)×HillSlope) where Y is the normalized response from 100% down to 0%, X is the decimal log of concentration, HillSlope is the slope. Data fitting was all performed in GraphPad Prism 5.01 software.
In general terms: Formazan colour is commonly taken as a measure of viable cells.

Data set [2] addresses T1, TRPV2 (Homo sapiens, UniProt Q9Y5S1).
T1 construct: endogenous in cells; host or cells: hCMEC/D3 (human cerebral microvessel endothelial cell line)
T1 sequence (Q9Y5S1 1-764): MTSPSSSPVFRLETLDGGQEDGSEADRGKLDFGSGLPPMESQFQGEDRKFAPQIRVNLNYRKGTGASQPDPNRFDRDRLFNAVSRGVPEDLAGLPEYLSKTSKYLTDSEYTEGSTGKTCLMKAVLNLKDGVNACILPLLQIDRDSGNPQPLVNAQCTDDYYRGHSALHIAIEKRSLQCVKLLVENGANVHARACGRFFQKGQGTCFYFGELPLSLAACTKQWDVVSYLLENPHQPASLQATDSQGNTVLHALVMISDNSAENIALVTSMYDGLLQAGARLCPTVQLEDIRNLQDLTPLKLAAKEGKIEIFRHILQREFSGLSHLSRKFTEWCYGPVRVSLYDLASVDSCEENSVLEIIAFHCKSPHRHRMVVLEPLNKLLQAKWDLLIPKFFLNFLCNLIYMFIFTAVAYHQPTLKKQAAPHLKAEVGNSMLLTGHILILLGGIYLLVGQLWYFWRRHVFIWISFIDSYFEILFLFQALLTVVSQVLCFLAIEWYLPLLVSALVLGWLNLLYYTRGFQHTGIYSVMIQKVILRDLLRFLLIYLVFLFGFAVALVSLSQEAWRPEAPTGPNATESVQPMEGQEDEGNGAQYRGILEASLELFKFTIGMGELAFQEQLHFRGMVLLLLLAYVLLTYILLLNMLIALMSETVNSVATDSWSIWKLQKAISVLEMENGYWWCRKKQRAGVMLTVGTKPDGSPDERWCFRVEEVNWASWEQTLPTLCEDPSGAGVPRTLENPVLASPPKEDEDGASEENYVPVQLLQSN
As to the kind of experiment: Intracellular Ca2+ signal measurements (Fluo-4-AM) in hCMEC/D3 cells. As to conditions: for effect on heat-induced [Ca2+]i signals: heat stimulation. It counts as cell-based. As for the experimental part:
Fluorescence measurement of intracellular Ca2+ ([Ca2+]i) concentration was performed in accordance with our optimized protocol as below: hCMEC/D3 cells grown at 100% confluence in 24-well plates were loaded with 2 μM of fluorescent marker, Fluo-4-AM (λex=496 nm, λem=516 nm, F14201, Thermo Fisher Scientific) for 45 min at 37° C. in a loading Hank's buffer (500 μL/well). The cells were washed and replaced with 500 μL/well buffer. After additional 10 min of incubation at 37° C., the 24-well plates were placed into a Victor™ X2 fluorescent heated microplate reader (PerkinElmer, France). When applying antagonists, cells were pre-treated with the compound for 5 min before to start fluorescent signals recording. Data are expressed as F1/F0, where F0 is the average fluorescence of the control group (no agent or no heat stimulation application) and F1 is the actual fluorescence at the corresponding time for the treated group. To visualize clearly and directly the effect of the chemical agonist and antagonist on [Ca2+]i change, hCMEC/D3 cells were seeded in a 8-well ibidi (1.5 polymer coverslip, CliniSciences). Then, the μ-Slide containing 250 μL/well normal buffer was placed on the platform of a ZEISS 515 […] confocal microscope (Carl Zeiss), and fluo-4-AM loaded cells were photographed using a time-lapse mode every 60 s during 20 min in a humidified 5% CO2 atmosphere at 37° C. Images of hCMEC/D3 were analysed in Fiji app running Image J software.
as §3

Data set [3] relates to hCMEC/D3 cells. As to the kind of experiment: Trypan blue exclusion assay (number of viable cells) in hCMEC/D3 cells. Type of data set: cell-based, human.
From the text: as §1

Data set [4] deals with hCMEC/D3 cells. Nature of the data set: ATP CellTiter-Glo luminescent cell viability assay in hCMEC/D3 cells. It counts as cell-based, human. On the procedure: FIG. 4: Pharmacological and genetic inhibition of TRPV2 reverse CBD-induced cell death of hCMEC/D3 cells. […] Cell viability was measured by ATP CellTiter-Glo luminescent cell viability assay. […] Cell viability was measured by ATP CellTiter-Glo luminescent cell viability assay. […] (D) Effect of silencing TRPV2 in CBD-induced cell cytotoxicity. […] Data are expressed as mean±SEM.
To further validate the involvement of TRPV2 in CBD-induced cell death of hCMEC/D3 cells, pharmacological and genetic inhibition strategies were used. The number of viable cells was evaluated by quantitating total ATP in cells treated by CBD. […] This further indicates the role of TRPV2 at least partly in the CBD-induced cell death.

The test system of data set [5] is hCMEC/D3 cells. Nature of the data set: Wound healing migration assay in hCMEC/D3 cells. Type of data set: cell-based, human. As to conditions: for effect on cell migration vs control group: 3 μM CBD. On the procedure:
Cell migration was determined with wound healing assay in hCMEC/D3 as reported previously20. Briefly, a standard wound was created by scratching the cell monolayer of hCMEC/D3 cells with a sterile 200 μL plastic pipette tip and line makers were made at the bottom of plates to indicate the wound edges. After removing cell fragments, the cells were incubated at 37° C. with medium containing 5% FBS. In order to minimize avoid the effect of cell proliferation on would healing assay, the medium was absent of bFGF. The areas of the wound and wound repair activity were photographed by phase contrast microscope (Olympus, Japan) at 0, 4, 8, 24 h. […] After 3 days, cells were prepared for wound healing assay with 100% confluence. […] To study the effects of silencing TRPV2 channel on cell proliferation, the cells were firstly treated under three conditions mentioned above (Control, negative siRNA, and TRPV2 siRNA) in a 6-wells plate. After transfection, the cells were re-distributed in 12-well plate at a density of 5×10^5 cells/well in 750 μL complete culture medium. When cells were 100% confluent, the wound healing assay was started following the above-mentioned protocol. Assays were performed 3 times in triplicate.

In data set [6] the test system is hCMEC/D3 cells. Nature of the data set: Tubulogenesis, 3D culture of hCMEC/D3 cells in Matrigel. Type of data set: cell-based, human. The settings on record: for increase of closing tube number vs control group: 3 μM CBD. On the procedure:
3D culture of hCMEC/D3 human BBB endothelial cells was performed using Matrigel (Corning). Matrigel, stored at 4° C. at least 24 h before the assay, was added to a 48-well plate (150 μL/well), and then the plate was incubated at 37° C. for 1 h to allow Matrigel polymerization. […] 500 μL/well fresh complete medium containing cells were distributed in the 48-well plate. After 2 h, 7 h and 24 h incubation, images of the wells in the plate were taken. […] Assays were performed 3 times in triplicate and tubule-like structure lumen count was realized with Image J software.

Data set [7] relates to hPBMEC monolayers. As to the kind of experiment: TEER of in vitro human BBB model using hPBMECs on Transwell. It counts as cell-based. As to conditions: 50 μM TNL co-treatment with 1 μM CBD.
From the text: Human Primary Brain Microvascular Endothelial Cells (hPBMECs). Brain capillary endothelial cells were isolated from surgical resections of patients with brain tumors. […] In brief, brain capillaries were isolated using soft digestion of patient brain peritumoral tissues and then seeded. Brain primary microvascular endothelial cells were shortly amplified and seeded on Transwell® (Corning) with microporous membranes (pore size: 0.4 μm) in monoculture or in co-culture with the same patient's fresh primary human cultured astrocytes. Cells were cultured in EBM-2 medium (Lonza, Basel, Switzerland) supplemented with 20% serum and growth factors (Sigma).
After 24 h co-culture, CBD (1 μM) or the same proportion of vehicle was added into the cell inserts. To study the involvement of TRPV2 in CBD-induced effect, cells were pre-treated with 50 μM TNL for 5 min before adding CBD. The TEER values expressed in Ω·cm2 were recorded after 1, 2, 4, 10, 24, 31, 48, 72, 96, 120 h of CBD treatment.
Data set [8] in a line: MTT cell viability assay in hCMEC/D3 cells. The settings on record: human, read-out: decrease of cell viability (MTT). It counts as cell-based, human.
From the text: as §1, §2, §3

The EC50 is the concentration giving half of the maximal effect. One may read the IC50 as the midpoint of a concentration-inhibition curve.

Where “and” joins values, the source holds several entries; their conditions need not be identical. Identical values can stand only once. Like-named read-outs stand apart in the source and are kept apart here.

As to `CC(C)C[C@H](NC(=O)c1cc2ccccc2s1)C(=O)N1CCN(C(=O)[C@H](CO)NS(=O)(=O)c2ccc(Cl)cc2Cl)CC1` [GSK1016790A], the “effect on cell viability (MTT)” value in data set [1] (GSK1016790A 1 μM, 24, 48 or 72 h) is on record as “did not alter cell viability”.

On to `COc1ccc(/C=C/C(=O)Nc2ccccc2C(=O)O)cc1OC` [TNL, tranilast], for which the “effect on CBD-mediated lasting elevation of [Ca2+]i” value in data set [2] (100 μM TNL, 15 μM CBD) is on record as “fully abolished”. Besides, the “effect on heat-induced [Ca2+]i signals” value in data set [2] (TNL 50 or 100 μM) is on record as “significantly decreased”. The “effect on CBD-induced increase of viable cells” value in data set [3] (50 μM TNL with 3 μM CBD) is recorded as “totally inhibited”. Further, the “effect on CBD-induced decrease in cell viability (ATP)” value in data set [4] (50 μM TNL, 15 μM CBD, 48 h) was “partly reversed”; in data set [4] (100 μM TNL, 30 μM CBD, 2 h), “reversed”. For the same molecule, the “effect on pro-migration effect of CBD” value in data set [5] (50 μM TNL co-treatment with 3 μM CBD, 8 h) is given as “totally inhibited”. Moreover, the “effect on CBD-induced tube formation” value in data set [6] (50 μM TNL co-treatment with 3 μM CBD, 7 h) is “inhibited”; in data set [6] (50 μM TNL with 3 μM CBD, 24 h), “totally reversed”. The “effect on CBD-induced TEER increase” value in data set [7] is recorded as “totally inhibited”.

For the molecule `C=C(C)[C@@H]1CCC(C)=C[C@H]1c1c(O)cc(CCCCC)cc1O` [CBD, cannabidiol], the “increase of [Ca2+]i area under the curve (AUC) vs control” value in data set [2] (30 μM CBD, 20 min incubation) turned out to be 1.5 fold. The “lowest concentration with significant increase of [Ca2+]i AUC” value in data set [2] (20 min incubation) was 0.3 µM. In addition, the cytotoxicity at 24 h, 15 μM was found to be 6% in data set [8] (hCMEC/D3 cells silenced for TRPV2 (TRPV2 siRNA)), 27% in data set [8] (hCMEC/D3 cells treated with negative (NEG) siRNA) and 37% in data set [8] (hCMEC/D3 cells). Also, the cytotoxicity at 48 h, 15 μM in data set [8] (hCMEC/D3 cells) was 77%. The cytotoxicity at 72 h, 15 μM in data set [8] (hCMEC/D3 cells) worked out at 78%. For the same molecule, the “CBD-induced proliferation level (MTT, CTL=100%)” value in data set [1] (24 h, siNEG cells) stood at 125.9±4.0%; in data set [1] (24 h, siTRPV2 cells), 113.0±2.1%. Also, the “increase of MTT absorbance vs control group” value in data set [1] (10 μM CBD, 24 h) was found to be 22.0±1.2%. Moreover, in data set [1] (24 h), the “lowest concentration with significantly increased MTT absorbance” value is 0.3 µM. The EC50 in data set [1] (Homo sapiens, hCMEC/D3, 24 h, read-out: EC50 of CBD effect on MTT absorbance (cell viability)) was approximately 0.3 µM. Further, the “increase of the number of viable cells” value in data set [3] (3 μM CBD) is recorded as 1.2 fold. For the same molecule, the “effect on cell viability (ATP)” value in data set [4] (30 μM CBD, 2 h) is reported as “significantly decreased”. For the same molecule, the “effect on cell migration vs control group” value in data set [5] (4 h post wound) is reported as “significant pro-migration effect”; in data set [5] (8 h post wound, p<0.05), “significant increase”. For the same molecule, the “increase of closing tube number vs control group” value was 41% and 42.0±14.0% in data set [6] (7 h); 73% and 73.0±15.3% in data set [6] (24 h).

For `N.N.N.N.N.N.N.N.N.N.N.N.N.N.[Cl-].[Cl-].[Cl-].[Cl-].[Cl-].[Cl-].[O-2].[O-2].[Ru+3].[Ru+3].[Ru+4]` [RR, ruthenium red], the “effect on CBD-induced elevation of [Ca2+]i” value in data set [2] (10 μM RR pretreatment, 15 μM CBD) is listed as “fully abolished”. The IC50 in data set [2] (15 μM CBD, antagonist pre-treatment 5 min, read-out: IC50 of inhibition of CBD-mediated elevation of [Ca2+]i) stood at 7.7 ± 1.7 µM. Besides, the “effect on heat-induced [Ca2+]i signals” value in data set [2] (RR) was “significantly decreased”.

The values are drawn from patent US20220117911A1, “METHODS AND COMPOSITIONS FOR MODULATING BLOOD-BRAIN BARRIER” (INSERM (institut National de la Santé et de la Recherche …, priority 2019, published 2022).
